# Data taken from US11370761B2, “Voltage-dependent T-type calcium channel inhibitor” (Nippon Chemiphar Co., Ltd., priority 2017, dated 2022).
# Biological target: T1, human Cav3.2 channel (Homo sapiens, UniProt O95180)
# T1 construct: expressed in transfected cells
# Assay: Intracellular calcium concentration measurement in human Cav3.2 channel expressing stable cell line (Pharmacological Test 1)
# Type: cell-based
# Settings: HEK293 cells stably expressing human Cav3.2, Fluo-4 AM fluorescence, KCl stimulation; read-out: Cav3.2 channel inhibitory action
# Source text: (1) Construction of Human Cav3.2 Channel Expressing Stable Cell Line
# A sequence in which a HindIII site and a kozak sequence (GCCACC) was provided on a 5′ side of a human Cav3.2 channel open reading frame (ORF) gene and a KpnI site was provided on a 3′ side thereof was incorporated into pcDNA3.1(+) (Thermo Fisher Scientific #V790-20), and the resultant was transfected into a HEK293 cell (ATCC No. CRL-1573) according to a protocol of FuGENE (registered trademark) HD Transfection Reagent (Promega #E2311).
# (2) Method of Measuring Intracellular Calcium Concentration
# The human Cav3.2 channel expressing stable cell line prepared by the test method (1) was seeded in a 96-well plate using a Dulbecco's modified Eagle's medium (DMEM medium) containing 10% fetal bovine serum (FBS), followed by culturing 37° C. for 48 hours under a 5% CO2 condition. Thereafter, the medium was removed, and each well washed with an A buffer was treated with 80 μL of a fluorescent dye solution containing a liquid mixture of 22 μg of a calcium fluorescent indicator Fluo-4 AM (Dojindo Molecular Technologies, Inc., #F311), 20 μL of dimethyl sulfoxide (DMSO), 1 μL of 10% Pluronic F-127 (Thermo Fisher Scientific #P6866), and 4 mL of the A buffer. After being left to stand for 45 minutes at room temperature under a light shielding condition, the cells were washed with a B buffer. In DMSO having the same final concentration as the test compound as a negative control, and the test compound dissolved in DMSO to have a final concentration of 0.1%, each test compound concentration solution containing the B buffer was added to each well. The cells were left to stand for additional 15 minutes at room temperature under a light shielding condition, and were measured using microplate reader EnVision (PerkinElmer Co., Ltd.) by the following method. First, after measuring background fluorescence in each well, an ionophore was added, and baseline fluorescence was measured. Thereafter, B buffer containing added KCl at a concentration of 83.8 mM was added to each well, and an increase in fluorescence due to calcium influx caused by the stimulation was measured for 10 seconds. Inhibition percentage was calculated from the maximum fluorescence increase value from the baseline, and an IC50 value was calculated by plotting a logarithmic value of the test compound concentration and inhibition activity. The measurement was performed by observing fluorescence of 510 nm emitted when the cells were irradiated with excitation light of 485 nm.
# A buffer: 140 mM NaCl, 5 mM KCl, 1 mM MgCl2, 0.5 mM CaCl2, 10 mM Glucose, 10 mM HEPES, pH 7.3
# B buffer: potassium equilibrium potential: −92 mV
# T1 sequence (O95180 whole entry): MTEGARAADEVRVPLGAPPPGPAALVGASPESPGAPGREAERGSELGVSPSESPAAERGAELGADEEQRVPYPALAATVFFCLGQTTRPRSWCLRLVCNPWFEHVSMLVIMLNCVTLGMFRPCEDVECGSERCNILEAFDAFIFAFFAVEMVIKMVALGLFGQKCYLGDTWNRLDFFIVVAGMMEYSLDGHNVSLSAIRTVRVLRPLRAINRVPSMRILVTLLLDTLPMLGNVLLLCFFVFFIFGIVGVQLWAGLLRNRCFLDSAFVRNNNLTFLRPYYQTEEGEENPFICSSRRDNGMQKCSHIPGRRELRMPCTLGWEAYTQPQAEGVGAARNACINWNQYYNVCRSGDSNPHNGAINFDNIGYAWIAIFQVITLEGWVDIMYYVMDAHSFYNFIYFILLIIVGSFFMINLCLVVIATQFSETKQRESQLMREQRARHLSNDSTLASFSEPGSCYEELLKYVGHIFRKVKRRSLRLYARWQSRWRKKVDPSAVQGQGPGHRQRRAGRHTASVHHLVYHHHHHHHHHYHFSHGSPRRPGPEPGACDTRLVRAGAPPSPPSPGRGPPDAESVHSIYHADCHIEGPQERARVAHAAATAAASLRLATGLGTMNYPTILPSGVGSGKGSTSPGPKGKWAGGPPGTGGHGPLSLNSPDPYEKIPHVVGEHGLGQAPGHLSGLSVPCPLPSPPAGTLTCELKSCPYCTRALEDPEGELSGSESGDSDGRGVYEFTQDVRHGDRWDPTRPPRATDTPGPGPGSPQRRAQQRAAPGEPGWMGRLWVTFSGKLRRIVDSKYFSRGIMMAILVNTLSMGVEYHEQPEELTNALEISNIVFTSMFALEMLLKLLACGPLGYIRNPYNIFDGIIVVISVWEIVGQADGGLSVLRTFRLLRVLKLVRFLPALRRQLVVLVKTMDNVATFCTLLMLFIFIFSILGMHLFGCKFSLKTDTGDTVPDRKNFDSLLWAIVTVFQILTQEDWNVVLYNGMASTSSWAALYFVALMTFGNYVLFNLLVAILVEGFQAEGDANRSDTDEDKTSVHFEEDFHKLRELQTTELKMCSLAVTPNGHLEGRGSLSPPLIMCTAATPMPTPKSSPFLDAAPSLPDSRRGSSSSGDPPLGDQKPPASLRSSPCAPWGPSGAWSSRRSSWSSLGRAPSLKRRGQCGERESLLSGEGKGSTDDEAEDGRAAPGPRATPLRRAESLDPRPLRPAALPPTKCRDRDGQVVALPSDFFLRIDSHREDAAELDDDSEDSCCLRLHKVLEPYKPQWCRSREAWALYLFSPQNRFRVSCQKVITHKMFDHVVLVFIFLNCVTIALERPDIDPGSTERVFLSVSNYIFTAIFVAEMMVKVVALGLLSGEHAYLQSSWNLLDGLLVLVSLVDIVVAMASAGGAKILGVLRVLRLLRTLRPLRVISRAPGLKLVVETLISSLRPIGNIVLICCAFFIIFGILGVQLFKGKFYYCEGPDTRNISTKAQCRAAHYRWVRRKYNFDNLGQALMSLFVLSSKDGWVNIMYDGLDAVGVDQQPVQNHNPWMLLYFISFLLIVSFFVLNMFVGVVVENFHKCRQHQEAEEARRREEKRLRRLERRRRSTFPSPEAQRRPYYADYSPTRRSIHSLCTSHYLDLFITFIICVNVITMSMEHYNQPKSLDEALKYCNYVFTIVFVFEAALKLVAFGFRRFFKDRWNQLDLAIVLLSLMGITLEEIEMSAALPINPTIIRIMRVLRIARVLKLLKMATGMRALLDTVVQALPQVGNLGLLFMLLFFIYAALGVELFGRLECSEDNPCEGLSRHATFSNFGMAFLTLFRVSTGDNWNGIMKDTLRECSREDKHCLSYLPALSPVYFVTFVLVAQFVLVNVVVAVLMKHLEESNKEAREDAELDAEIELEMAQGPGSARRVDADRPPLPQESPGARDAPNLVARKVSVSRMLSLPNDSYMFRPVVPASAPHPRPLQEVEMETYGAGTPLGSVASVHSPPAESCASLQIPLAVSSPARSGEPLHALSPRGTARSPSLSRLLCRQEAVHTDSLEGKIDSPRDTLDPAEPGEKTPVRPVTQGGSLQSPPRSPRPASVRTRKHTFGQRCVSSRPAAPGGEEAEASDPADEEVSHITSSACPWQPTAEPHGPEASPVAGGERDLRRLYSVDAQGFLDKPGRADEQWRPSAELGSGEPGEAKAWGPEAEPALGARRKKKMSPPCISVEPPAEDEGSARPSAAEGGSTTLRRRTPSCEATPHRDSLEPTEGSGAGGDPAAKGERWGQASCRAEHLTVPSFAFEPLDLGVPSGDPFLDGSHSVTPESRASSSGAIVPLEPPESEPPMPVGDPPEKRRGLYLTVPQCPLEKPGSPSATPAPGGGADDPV
row,Compound,IC50
1,"CC(NC(=O)C1CC1c1nc2ccccc2[nH]1)C(=O)N(C)c1ccc(C(F)(F)F)cc1 (single isomer, unassigned) [Example 8A, Trans-2-(1H-benzo[d]imidazol-2-yl)-N-(1-(methyl(4-(trifluoromethyl)phenyl)amino)-1-oxopropan-2-yl) cyclopropane-1-carboxamide]",100 to 1000 nM
2,"O=C(NC1CC(=O)N(c2ccc(C(F)(F)F)nc2)C1)[C@H]1C[C@@H]1c1nc2ccccc2[nH]1 (single isomer, unassigned) [Example 33B]",1000 to 10000 nM
3,"O=C(NC1CCN(c2ccc(C(F)(F)F)cc2)C1=O)[C@H]1C[C@@H]1c1nc2ccccc2[nH]1 (single isomer, unassigned) [Example 23A]",1000 to 10000 nM
4,"O=C(NC1(C(=O)Nc2cccc(C(F)(F)F)c2)CC1)[C@H]1C[C@@H]1c1nc2ccccc2n1C1CC1 [Example 40, 1-((1S, 2S)-2-(1-Cyclopropyl-1H-benzo[d]imidazol-2-yl)cyclopropane-1-carboxamido)-N-(3-(trifluoromethyl)phenyl) cyclopropane-1-carboxamide]",≤ 100 nM
5,"CC(NC(=O)C1CC1c1nc2ccccc2[nH]1)C(=O)NC1CN(C(=O)OC(C)(C)C)C1 (stereo not drawn) [Example 10, tert-Butyl trans-3-(2-(2-(1H-benzo[d]imidazol-2-yl)cyclopropane-1-carboxamido)propanamido)azetidine-1-carboxylate]",> 10000 nM
6,"CCn1c([C@H]2C[C@@H]2C(=O)NC2(C(=O)Nc3ccc(C(F)(F)F)nc3)CC2)nc2ccccc21 [Example 27, 1-((1S, 2S)-2-(1-Ethyl-1H-benzo[d]imidazol-2-yl)cyclopropane-1-carboxamido)-N-(6-(trifluoromethyl)pyridin-3-yl) cyclopropane-1-carboxamide]",≤ 100 nM
7,"O=C(Nc1ccc(C(F)(F)F)cc1)C1CCCN1C(=O)C1CC1c1nc2ccccc2[nH]1 (single isomer, unassigned) [Example 19B, Trans-1-(2-(1H-benzo[d]imidazol-2-yl)cyclopropane-1-carbonyl)-N-(4-(trifluoromethyl)phenyl)pyrrolidine-2-carboxamide]",1000 to 10000 nM
8,"CC(NC(=O)C1CC1c1nc2ccccc2[nH]1)C(=O)Nc1cnccn1 (stereo not drawn) [Example 17, Trans-2-(1H-benzo[d]imidazol-2-yl)-N-(1-oxo-1-(pyrazin-2-ylamino)propan-2-yl) cyclopropane-1-carboxamide]",> 10000 nM
9,"CC(NC(=O)C1CC1c1nc2ccccc2[nH]1)C(=O)NCc1ccc(S(C)(=O)=O)cc1 (stereo not drawn) [Example 9, Trans-2-(1H-benzo[d]imidazol-2-yl)-N-(1-((4-(methylsulfonyl)benzyl)amino)-1-oxopropan-2-yl) cyclopropane-1-carboxamide]",> 10000 nM
10,"O=C(NC1(C(=O)Nc2cccc(C(F)(F)F)c2)CCC1)[C@H]1C[C@@H]1c1nc2ccccc2[nH]1 [Example 36, 1-((1S, 2S)-2-(1H-Benzo[d]imidazol-2-yl)cyclopropane-1-carboxamido)-N-(3-(trifluoromethyl)phenyl) cyclobutane-1-carboxamide]",≤ 100 nM
11,"CC(C)N(C(=O)CNC(=O)[C@H]1C[C@@H]1c1nc2ccccc2[nH]1)c1ccc(C(F)(F)F)nc1 [Example 30, (1S, 2S)-2-(1H-Benzo[d]imidazol-2-yl)-N-(2-(isopropyl (6-(trifluoromethyl)pyridin-3-yl)amino)-2-oxoethyl) cyclopropane-1-carboxamide]",> 10000 nM
12,"O=C(NC1(C(=O)Nc2cc(F)cc(C(F)(F)F)c2)CC1)[C@H]1C[C@@H]1c1nc2ccccc2[nH]1 [Example 42, 1-((1S, 2S)-2-(1H-Benzo[d]imidazol-2-yl)cyclopropane-1-carboxamido)-N-(3-fluoro-5-(trifluoromethyl)phenyl) cyclopropane-1-carboxamide]",100 to 1000 nM
13,"O=C(NC1(C(=O)Nc2ccc(F)c(C(F)(F)F)c2)CC1)[C@H]1C[C@@H]1c1nc2ccccc2[nH]1 [Example 31, 1-((1S, 2S)-2-(1H-Benzo[d]imidazol-2-yl)cyclopropane-1-carboxamido)-N-(4-fluoro-3-(trifluoromethyl)phenyl) cyclopropane-1-carboxamide]",≤ 100 nM
14,"CC(NC(=O)C1CC1c1nc2ccccc2[nH]1)C(=O)Nc1cnc(Br)cn1 (single isomer, unassigned) [Example 18B, Trans-2-(1H-benzo[d]imidazol-2-yl)-N-(1-((5-bromopyrazin-2-yl)amino)-1-oxopropan-2-yl) cyclopropane-1-carboxamide]",> 10000 nM
15,"O=C(NC1(C(=O)Nc2cncc(C(F)(F)F)c2)CC1)[C@H]1C[C@@H]1c1nc2ccccc2[nH]1 [Example 29, 1-((1S, 2S)-2-(1H-Benzo[d]imidazol-2-yl)cyclopropane-1-carboxamido)-N-(5-(trifluoromethyl)pyridin-3-yl) cyclopropane-1-carboxamide]",1000 to 10000 nM
16,"CC(NC(=O)C1CC1c1nc2ccccc2[nH]1)C(=O)NCc1ccc(C(F)(F)F)cc1 (stereo not drawn) [Example 14, Trans-2-(1H-benzo[d]imidazol-2-yl)-N-(1-oxo-1-((4-(trifluoromethyl)benzyl)amino)propan-2-yl) cyclopropane-1-carboxamide]",100 to 1000 nM
17,"CC(NC(=O)C1CC1c1nc2ccccc2[nH]1)C(=O)Nc1cccc(C(F)(F)F)c1 (single isomer, unassigned) [Example 38B, Trans-2-(1H-benzo[d]imidazol-2-yl)-N-(1-oxo-1-((3-(trifluoromethyl)phenyl)amino)propan-2-yl) cyclopropane-1-carboxamide]",≤ 100 nM
18,"CC(NC(=O)C1CC1c1nc2ccccc2[nH]1)C(=O)Nc1ccc(C#N)cc1 (single isomer, unassigned) [Example 6B, Trans-2-(1H-benzo[d]imidazol-2-yl)-N-(1-((4-cyanophenyl)amino)-1-oxopropan-2-yl) cyclopropane-1-carboxamide]",1000 to 10000 nM
19,"CC(NC(=O)C1CC1c1nc2ccccc2[nH]1)C(=O)Nc1ccc(C(F)(F)F)nc1 (single isomer, unassigned) [Example 5B, Trans-2-(1H-benzo[d]imidazol-2-yl)-N-(1-oxo-1-((6-(trifluoromethyl)pyridin-3-yl)amino)propan-2-yl) cyclopropane-1-carboxamide]",100 to 1000 nM
20,"CC(NC(=O)C1CC1c1nc2ccccc2[nH]1)C(=O)Nc1ccc(Cl)cc1 (single isomer, unassigned) [Example 16B, Trans-2-(1H-benzo[d]imidazol-2-yl)-N-(1-((4-chlorophenyl)amino)-1-oxopropan-2-yl) cyclopropane-1-carboxamide]",1000 to 10000 nM
21,"CC(NC(=O)C1CC1c1nc2ccccc2[nH]1)C(=O)Nc1ccc(Cl)cc1 (single isomer, unassigned) [Example 16A, Trans-2-(1H-benzo[d]imidazol-2-yl)-N-(1-((4-chlorophenyl)amino)-1-oxopropan-2-yl) cyclopropane-1-carboxamide]",100 to 1000 nM
22,"CC(NC(=O)C1CC1c1nc2ccccc2[nH]1)C(=O)Nc1ccc(C(C)(C)C)cc1 (single isomer, unassigned) [Example 7B, Trans-2-(1H-benzo[d]imidazol-2-yl)-N-(1-((4-(tert-butyl)phenyl)amino)-1-oxopropan-2-yl) cyclopropane-1-carboxamide]",100 to 1000 nM
23,"CC(C)C[C@@H](NC(=O)[C@H]1C[C@@H]1c1nc2ccccc2[nH]1)C(=O)Nc1cccc(C(F)(F)F)c1 [Example 37, (1S, 2S)-2-(1H-Benzo[d]imidazol-2-yl)-N—((R)-4-methyl-1-oxo-1-((3-(trifluoromethyl)phenyl)amino)pentan-2-yl) cyclopropane-1-carboxamide]",100 to 1000 nM
24,"CCCc1ccc(NC(=O)C(C)NC(=O)C2CC2c2nc3ccccc3[nH]2)cc1 (single isomer, unassigned) [Example 2B, Trans-2-(1H-benzo[d]imidazol-2-yl)-N-(1-oxo-1-((4-propylphenyl)amino)propan-2-yl) cyclopropane-1-carboxamide]",> 10000 nM
25,"CCCc1ccc(NC(=O)C(C)NC(=O)C2CC2c2nc3ccccc3[nH]2)cc1 (single isomer, unassigned) [Example 2A, Trans-2-(1H-benzo[d]imidazol-2-yl)-N-(1-oxo-1-((4-propylphenyl)amino)propan-2-yl) cyclopropane-1-carboxamide]",100 to 1000 nM
26,"COCC(NC(=O)[C@H]1C[C@@H]1c1nc2ccccc2[nH]1)C(=O)Nc1ccc(F)c(C(F)(F)F)c1 (single isomer, unassigned) [Example 32B]",100 to 1000 nM
